From patent publication US8735601B2, “Pentamethine cyanine fluorescent dye with N-substituting at β-position of conjugated chain” (Dalian University of Technology, priority 2010, dated 2014)

Key:
[1] = system: calf thymus DNA (ct-DNA); test: Titration of dye solution with calf thymus DNA, fluorescence and UV absorption; format: binding; details: dye 1×10^−6 M, PBS pH 7.4
Description: The solutions of compounds Ha to IIc in a concentration of 1×10^−6M (10 mM PBS buffer (pH=7.4) was used as solvent) was prepared, and 3 ml of the each dye solution was added into a cuvette separately. Then, an aqueous calf thymus DNA stock solution was prepared, the concentration of the calf thymus DNA stock solution was determined as 1.5×10^−3 mM by the absorbance at 260 nm on UV absorption spectrophotometer. The calf thymus DNA stock solution was added dropwise into each of the dye solution. The fluorescence intensity of the dye was measured each 5 minutes after addition of […] for fluorescence becoming stable, on UV-visible spectrophotometer (Mode: Hp8453) and fluorescence spectrophotometer (Mode: FP-6500).
From the interaction results of three dyes with calf thymus DNA, it can be known that no evident fluorescence increase was found after the interaction of the dye with the DNA. FIGS. 4 and 5 were titration figures of the interaction of dye lib with calf thymus DNA. […] All of these indicated DNA could be differentiated from protein by dyes IIa, IIb and IIc.

[2] = Absorption and emission spectra of dyes in different solvents; format: physicochemical; design: key to Δλ1 / Δλ2: Stokes shift in nm; ε1 (molar extinction coefficient) / ε2 (molar extinction coefficient): scale not given here; details: for Δλ1: Stokes shift to absorption peak 1; for Δλ2: Stokes shift to absorption peak 2
Text: In the present invention, compounds IIa to IIg were synthesized based on compound II, and their spectral properties were investigated. Compared with the traditional pentamethine cyanine dye, for the novel pentamethine cyanine dye with N-substituting at β-position (deviated position), it was observed that, evident blue shift of absorption and emission wavelengths occurred, absorption wavelength blue shifted even largely than that of emission wavelength, absorption spectrum and fluorescence spectrum were no longer mirror-symmetric and had two absorption peaks and a single emission peak, and larger Stokes shift (minimum 60 and 150 nm, and maximum 90 and 230 nm) appeared.

[3] = molecular target: bovine serum albumin (BSA) (Bos taurus, UniProt P02769); test: Titration of dye solution with BSA, fluorescence and UV absorption; format: binding; details: dye solution 1 μM, PBS pH 7.4
Description: The solutions of compounds Ha to IIc in a concentration of 1×10^−6M (10 mM PBS buffer (pH=7.4) was used as solvent) was prepared, and 3 ml of the each dye solution was added into a cuvette, respectively. Then, an aqueous bovine serum albumin (BSA) stock solution with the concentration of […] (750 μM) was added dropwise into each of the dye solution. The fluorescence intensity of the dye was measured each 5 minutes after addition of BSA for fluorescence becoming stable, on UV-visible spectrophotometer (Mode: Hp8453) and fluorescence spectrophotometer (Mode: FP-6500).
Especially for dyes IIb and IIc, the fluorescence intensity thereof was increased linearly with addition of BSA to arrive at more than 30 folds.

[4] = Measurement of fluorescence quantum yield (Rhodamine B in ethanol as reference); format: physicochemical

Sequence of bovine serum albumin (BSA) (P02769 25-607): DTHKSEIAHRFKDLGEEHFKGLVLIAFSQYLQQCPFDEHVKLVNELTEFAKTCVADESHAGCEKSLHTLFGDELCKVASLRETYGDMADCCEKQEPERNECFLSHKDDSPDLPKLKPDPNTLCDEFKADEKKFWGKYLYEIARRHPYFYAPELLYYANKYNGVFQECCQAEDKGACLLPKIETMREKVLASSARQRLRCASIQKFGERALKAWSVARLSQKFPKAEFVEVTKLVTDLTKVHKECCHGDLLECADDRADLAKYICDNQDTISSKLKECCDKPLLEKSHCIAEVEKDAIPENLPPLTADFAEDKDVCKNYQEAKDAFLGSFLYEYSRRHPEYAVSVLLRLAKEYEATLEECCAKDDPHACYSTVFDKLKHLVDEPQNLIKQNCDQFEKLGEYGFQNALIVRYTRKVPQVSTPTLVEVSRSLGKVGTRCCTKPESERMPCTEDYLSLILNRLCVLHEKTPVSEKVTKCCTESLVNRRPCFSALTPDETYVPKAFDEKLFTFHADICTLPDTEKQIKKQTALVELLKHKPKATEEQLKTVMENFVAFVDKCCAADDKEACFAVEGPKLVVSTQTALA

For `CCN1/C(=C/C=C/C(=C/C2=[N+](CC)c3ccccc3C2(C)C)NCCO)C(C)(C)c2ccccc21` [Dye IIb], the “change of fluorescence by interaction with ct-DNA” value [1] was “little fluorescence increase”, the Δλ1 ([2]; solvent DCM) was 79 and the Δλ1 ([2]; solvent DMSO) was 91. The Δλ1 ([2]; solvent Ethanol) was 91, the Δλ1 ([2]; solvent Methanol) was 89 and the Δλ1 ([2]; solvent THF) was 82. It also gave a Δλ1 ([2]; solvent Water) of 103, a Δλ2 ([2]; solvent DCM) of 167 and a Δλ2 ([2]; solvent DMSO) of 170. The Δλ2 ([2]; solvent Ethanol) was 177, the Δλ2 ([2]; solvent Methanol) was 175 and the Δλ2 ([2]; solvent THF) was 158. The Δλ2 ([2]; solvent Water) was 190, the “ε1 (molar extinction coefficient)” value ([2]; solvent DCM) was 3.4 cm^−1M and the “ε2 (molar extinction coefficient)” value ([2]; solvent DCM) was 1.7 cm^−1M. For the same molecule, the λabs1 ([2]; solvent DCM) was 517 nm, the λbs2 ([2]; solvent DCM) was 429 nm and the λem ([2]; solvent DCM) was 596 nm. For the same molecule, the “ε1 (molar extinction coefficient)” value ([2]; solvent DMSO) was 3.0 cm^−1M, the “ε2 (molar extinction coefficient)” value ([2]; solvent DMSO) was 2.3 cm^−1M and the λabs1 ([2]; solvent DMSO) was 515 nm. The λbs2 ([2]; solvent DMSO) was 436 nm, the λem ([2]; solvent DMSO) was 606 nm and the “ε1 (molar extinction coefficient)” value ([2]; solvent Ethanol) was 3.3 cm^−1M. For the same molecule, the “ε2 (molar extinction coefficient)” value ([2]; solvent Ethanol) was 2.3 cm^−1M, the λabs1 ([2]; solvent Ethanol) was 521 nm and the λbs2 ([2]; solvent Ethanol) was 435 nm. For the same molecule, the λem ([2]; solvent Ethanol) was 612 nm, the “ε1 (molar extinction coefficient)” value ([2]; solvent Methanol) was 3.1 cm^−1M and the “ε2 (molar extinction coefficient)” value ([2]; solvent Methanol) was 2.4 cm^−1M. It also gave a λabs1 ([2]; solvent Methanol) of 519 nm, a λbs2 ([2]; solvent Methanol) of 433 nm and a λem ([2]; solvent Methanol) of 608 nm. The “ε1 (molar extinction coefficient)” value ([2]; solvent THF) was 3.6 cm^−1M, the “ε2 (molar extinction coefficient)” value ([2]; solvent THF) was 2.2 cm^−1M and the λabs1 ([2]; solvent THF) was 503 nm. The λbs2 ([2]; solvent THF) was 427 nm, the λem ([2]; solvent THF) was 585 nm and the “ε1 (molar extinction coefficient)” value ([2]; solvent Water) was 2.1 cm^−1M. The “ε2 (molar extinction coefficient)” value ([2]; solvent Water) was 1.7 cm^−1M, the λabs1 ([2]; solvent Water) was 517 nm and the λbs2 ([2]; solvent Water) was 430 nm. For the same molecule, the λem ([2]; solvent Water) was 620 nm, the “change of fluorescence intensity by interaction with protein (BSA)” value [3] was “largely increased” and the “Φ1 (fluorescence quantum yield)” value ([4]; solvent DCM) was 0.114. The “Φ2 (fluorescence quantum yield)” value ([4]; solvent DCM) was 0.100, the “Φ1 (fluorescence quantum yield)” value ([4]; solvent DMSO) was 0.009 and the “Φ2 (fluorescence quantum yield)” value ([4]; solvent DMSO) was 0.008. For the same molecule, the “Φ1 (fluorescence quantum yield)” value ([4]; solvent Ethanol) was 0.019, the “Φ2 (fluorescence quantum yield)” value ([4]; solvent Ethanol) was 0.017 and the “Φ1 (fluorescence quantum yield)” value ([4]; solvent Methanol) was 0.009. For the same molecule, the “Φ2 (fluorescence quantum yield)” value ([4]; solvent Methanol) was 0.008, the “Φ1 (fluorescence quantum yield)” value ([4]; solvent THF) was 0.085 and the “Φ2 (fluorescence quantum yield)” value ([4]; solvent THF) was 0.075. The “Φ1 (fluorescence quantum yield)” value ([4]; solvent Water) was 0.002 and the “Φ2 (fluorescence quantum yield)” value ([4]; solvent Water) was 0.002.

For `CCN1/C(=C/C=C/C(=C/C2=[N+](CC)c3ccccc3C2(C)C)N(CCO)CCO)C(C)(C)c2ccccc21` [Dye IIc], the “change of fluorescence by interaction with ct-DNA” value [1] was “little fluorescence increase”, the Δλ1 ([2]; solvent DCM) was 96 and the Δλ1 ([2]; solvent DMSO) was 97. It also gave a Δλ1 ([2]; solvent Ethanol) of 97, a Δλ1 ([2]; solvent Methanol) of 97 and a Δλ1 ([2]; solvent THF) of 88. It also gave a Δλ1 ([2]; solvent Water) of 98, a Δλ2 ([2]; solvent DCM) of 168 and a Δλ2 ([2]; solvent DMSO) of 154. The Δλ2 ([2]; solvent Ethanol) was 167, the Δλ2 ([2]; solvent Methanol) was 169 and the Δλ2 ([2]; solvent THF) was 155. For the same molecule, the Δλ2 ([2]; solvent Water) was 168, the “ε1 (molar extinction coefficient)” value ([2]; solvent DCM) was 2.8 cm^−1M and the “ε2 (molar extinction coefficient)” value ([2]; solvent DCM) was 2.1 cm^−1M. For the same molecule, the λabs1 ([2]; solvent DCM) was 526 nm, the λbs2 ([2]; solvent DCM) was 454 nm and the λem ([2]; solvent DCM) was 622 nm. The “ε1 (molar extinction coefficient)” value ([2]; solvent DMSO) was 2.5 cm^−1M, the “ε2 (molar extinction coefficient)” value ([2]; solvent DMSO) was 2.1 cm^−1M and the λabs1 ([2]; solvent DMSO) was 515 nm. For the same molecule, the λbs2 ([2]; solvent DMSO) was 458 nm, the λem ([2]; solvent DMSO) was 612 nm and the “ε1 (molar extinction coefficient)” value ([2]; solvent Ethanol) was 2.8 cm^−1M. The “ε2 (molar extinction coefficient)” value ([2]; solvent Ethanol) was 2.3 cm^−1M, the λabs1 ([2]; solvent Ethanol) was 521 nm and the λbs2 ([2]; solvent Ethanol) was 451 nm. For the same molecule, the λem ([2]; solvent Ethanol) was 618 nm, the “ε1 (molar extinction coefficient)” value ([2]; solvent Methanol) was 3.1 cm^−1M and the “ε2 (molar extinction coefficient)” value ([2]; solvent Methanol) was 2.2 cm^−1M. The λabs1 ([2]; solvent Methanol) was 522 nm, the λbs2 ([2]; solvent Methanol) was 450 nm and the λem ([2]; solvent Methanol) was 619 nm. For the same molecule, the “ε1 (molar extinction coefficient)” value ([2]; solvent THF) was 3.1 cm^−1M, the “ε2 (molar extinction coefficient)” value ([2]; solvent THF) was 1.9 cm^−1M and the λabs1 ([2]; solvent THF) was 517 nm. For the same molecule, the λbs2 ([2]; solvent THF) was 450 nm, the λem ([2]; solvent THF) was 605 nm and the “ε1 (molar extinction coefficient)” value ([2]; solvent Water) was 1.8 cm^−1M. For the same molecule, the “ε2 (molar extinction coefficient)” value ([2]; solvent Water) was 1.9 cm^−1M, the λabs1 ([2]; solvent Water) was 517 nm and the λbs2 ([2]; solvent Water) was 447 nm. For the same molecule, the λem ([2]; solvent Water) was 615 nm, the “change of fluorescence intensity by interaction with protein (BSA)” value [3] was “largely increased” and the “Φ1 (fluorescence quantum yield)” value ([4]; solvent DCM) was 0.124. The “Φ2 (fluorescence quantum yield)” value ([4]; solvent DCM) was 0.061, the “Φ1 (fluorescence quantum yield)” value ([4]; solvent DMSO) was 0.005 and the “Φ2 (fluorescence quantum yield)” value ([4]; solvent DMSO) was 0.005. The “Φ1 (fluorescence quantum yield)” value ([4]; solvent Ethanol) was 0.014, the “Φ2 (fluorescence quantum yield)” value ([4]; solvent Ethanol) was 0.013 and the “Φ1 (fluorescence quantum yield)” value ([4]; solvent Methanol) was 0.007. For the same molecule, the “Φ2 (fluorescence quantum yield)” value ([4]; solvent Methanol) was 0.008, the “Φ1 (fluorescence quantum yield)” value ([4]; solvent THF) was 0.109 and the “Φ2 (fluorescence quantum yield)” value ([4]; solvent THF) was 0.099. The “Φ1 (fluorescence quantum yield)” value ([4]; solvent Water) was 0.001 and the “Φ2 (fluorescence quantum yield)” value ([4]; solvent Water) was 0.001.
